Data published in patent publication US20260262643A1, “HERBICIDAL BENZOXAZINES” (FMC CORPORATION, priority 2022, published 2026).

Key:
[1] = system: oat, wild; assay: Test A postemergence; format: in vivo, Avena fatua; details: for Plant response rating, Oat, Wild: 500 g ai/ha
Outline: (§1)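 Visual injury ratings on a 0–100 scale (100 = complete control) versus untreated controls, taken 10 days after treatment in greenhouse. Preemergence: directed soil spray onto seeded loam/sand. Postemergence: foliar application at one- to two-leaf stage, plants 2–10 cm. Formulation: non-phytotoxic solvent plus surfactant.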

[2] = system: kochia; assay: Test A postemergence; format: in vivo, Bassia scoparia
Outline: as §1

[3] = system: horseweed; assay: Test A postemergence; format: in vivo, Erigeron canadensis
Outline: as §1

[4] = system: goosegrass; assay: Test A preemergence; format: in vivo, Eleusine indica
Outline: as §1

[5] = system: foxtail, giant; assay: Test A postemergence; format: in vivo, Setaria faberi
Outline: as §1

[6] = system: soybean; assay: Test A postemergence; format: in vivo, Glycine max; details: for Plant response rating, Soybean: 500 g ai/ha
Outline: as §1

[7] = system: corn; assay: Test A postemergence; format: in vivo, Zea mays
Outline: as §1

[8] = system: barnyardgrass; assay: Test B flooded paddy test; format: in vivo, Echinochloa crus-galli; details: 250 g ai/ha, Flood, 13 days, 0 to 100 scale (0 no effect, 100 complete control)
Outline: (§2)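 Each species was raised to the 2-leaf stage. At treatment, each pot received floodwater 3 cm deep, with the chemical delivered into the water. Greenhouse holding followed for 13 days, then percent control was estimated visually versus untreated pots.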

[9] = system: wheat; assay: Test A preemergence; format: in vivo, Triticum aestivum
Outline: as §1

[10] = system: kochia; assay: Test A preemergence; format: in vivo, Bassia scoparia
Outline: as §1

[11] = system: soybean; assay: Test A preemergence; format: in vivo, Glycine max
Outline: as §1

[12] = system: blackgrass; assay: Test A preemergence; format: in vivo, Alopecurus myosuroides
Outline: as §1

[13] = system: oat, wild; assay: Test A preemergence; format: in vivo, Avena fatua
Outline: as §1

[14] = system: galium; assay: Test A postemergence; format: in vivo, Galium aparine
Outline: as §1

[15] = system: rice; assay: Test B flooded paddy test; format: in vivo, Oryza sativa; details: 250 g ai/ha, Flood, 13 days, 0 to 100 scale (0 no effect, 100 complete control)
Outline: as §2

[16] = system: wheat; assay: Test A postemergence; format: in vivo, Triticum aestivum; details: for Plant response rating, Wheat: 500 g ai/ha
Outline: as §1

[17] = system: ragweed; assay: Test A preemergence; format: in vivo, Ambrosia artemisiifolia
Outline: as §1

[18] = system: pigweed, palmer; assay: Test A postemergence; format: in vivo, Amaranthus palmeri; details: for Plant response rating, Pigweed, Palmer: 500 g ai/ha
Outline: as §1

[19] = system: goosegrass; assay: Test A postemergence; format: in vivo, Eleusine indica
Outline: as §1

[20] = system: corn; assay: Test A preemergence; format: in vivo, Zea mays
Outline: as §1

[21] = system: sedge, umbrella; assay: Test B flooded paddy test; format: in vivo, Cyperus difformis; details: 250 g ai/ha, Flood, 13 days, 0 to 100 scale (0 no effect, 100 complete control)
Outline: as §2

[22] = system: ragweed; assay: Test A postemergence; format: in vivo, Ambrosia artemisiifolia; details: for Plant response rating, Ragweed: 500 g ai/ha
Outline: as §1

[23] = system: ryegrass, Italian; assay: Test A postemergence; format: in vivo, Lolium multiflorum; details: for Plant response rating, Ryegrass, Italian: 500 g ai/ha
Outline: as §1

[24] = system: ryegrass, Italian; assay: Test A preemergence; format: in vivo, Lolium multiflorum
Outline: as §1

[25] = system: foxtail, giant; assay: Test A preemergence; format: in vivo, Setaria faberi
Outline: as §1

[26] = system: pigweed, palmer; assay: Test A preemergence; format: in vivo, Amaranthus palmeri
Outline: as §1

[27] = system: ducksalad; assay: Test B flooded paddy test; format: in vivo, Heteranthera limosa; details: 250 g ai/ha, Flood, 13 days, 0 to 100 scale (0 no effect, 100 complete control)
Outline: as §2

[28] = system: blackgrass; assay: Test A postemergence; format: in vivo, Alopecurus myosuroides
Outline: as §1

[29] = 125 g ai/ha, postemergence, 10 days, 0 to 100 scale, 0 no effect, 100 complete control
[30] = postemergence, 10 days, visual injury, 0 to 100 scale (0 no effect, 100 complete control)
[31] = 500 g ai/ha, postemergence, 10 days, visual injury, 0 to 100 scale (0 no effect, 100 complete control)
[32] = 125 g ai/ha, visual injury after 10 days, 0 to 100 scale, 0 is no effect, 100 is complete control
[33] = 500 g ai/ha, 0 to 100 scale (0 no effect, 100 complete control), 10 days
[34] = 125 g ai/ha, postemergence, 10 days, visual injury, 0 to 100 scale (0 no effect, 100 complete control)
[35] = 500 g ai/ha, Postemergence, 0 to 100 scale

## CCOc1ccc(-n2cnc(C(C)C)n2)cc1C(=O)N1C[C@H](C)Oc2c(Cl)cccc21 [Compound 106]
[1]; [29]
  Oat, Wild plant response rating: 30
[1]; [30]
  Plant response rating, Oat, Wild: 60
[2]; [29]
  Kochia plant response rating: 90
[2]; [31]
  Plant response rating, Kochia: 90
[3]; [29]
  Horseweed plant response rating: 10
[3]; [31]
  Plant response rating, Horseweed: 80
[4]; [32]
  Plant response rating, Goosegrass: 100
[4]; [33]
  Plant response rating, Goosegrass: 100
[5]; [29]
  Foxtail, Giant plant response rating: 90
[5]; [31]
  Plant response rating, Foxtail, Giant: 100
[6]; [29]
  Soybean plant response rating: 100
[6]; [30]
  Plant response rating, Soybean: 100
[7]; [29]
  Corn plant response rating: 60
[7]; [31]
  Plant response rating, Corn: 90
[8]
  Plant response rating, Barnyardgrass: 55
[9]; [32]
  Plant response rating, Wheat: 0
[9]; [33]
  Plant response rating, Wheat: 40
[10]; [32]
  Plant response rating, Kochia: 50
[10]; [33]
  Plant response rating, Kochia: 100
[11]; [32]
  Plant response rating, Soybean: 50
[11]; [33]
  Plant response rating, Soybean: 100
[12]; [32]
  Plant response rating, Blackgrass: 0
[12]; [33]
  Plant response rating, Blackgrass: 0
[13]; [32]
  Plant response rating, Oat, Wild: 20
[13]; [33]
  Plant response rating, Oat, Wild: 90
[14]; [29]
  Galium plant response rating: 70
[14]; [31]
  Plant response rating, Galium: 100
[15]
  Plant response rating, Rice: 15
[16]; [29]
  Wheat plant response rating: 20
[16]; [30]
  Plant response rating, Wheat: 40
[17]; [32]
  Plant response rating, Ragweed: 30
[17]; [33]
  Plant response rating, Ragweed: 100
[18]; [29]
  Pigweed, Palmer plant response rating: 70
[18]; [30]
  Plant response rating, Pigweed, Palmer: 90
[19]; [29]
  Goosegrass plant response rating: 70
[19]; [31]
  Plant response rating, Goosegrass: 90
[20]; [32]
  Plant response rating, Corn: 10
[20]; [33]
  Plant response rating, Corn: 50
[21]
  Plant response rating, Sedge, Umbrella: 90
[22]; [29]
  Ragweed plant response rating: 50
[22]; [30]
  Plant response rating, Ragweed: 70
[23]; [29]
  Ryegrass, Italian plant response rating: 20
[23]; [30]
  Plant response rating, Ryegrass, Italian: 80
[24]; [32]
  Plant response rating, Ryegrass, Italian: 40
[24]; [33]
  Plant response rating, Ryegrass, Italian: 100
[25]; [32]
  Plant response rating, Foxtail, Giant: 100
[25]; [33]
  Plant response rating, Foxtail, Giant: 100
[26]; [32]
  Plant response rating, Pigweed, Palmer: 100
[26]; [33]
  Plant response rating, Pigweed, Palmer: 100
[27]
  Plant response rating, Ducksalad: 10
[28]; [29]
  Blackgrass plant response rating: 60
[28]; [31]
  Plant response rating, Blackgrass: 80

## Cc1cccc2c1O[C@@H](C)CN2C(=O)c1cccc(-n2cnc(C(C)(C)C)n2)c1 [Compound 65]
[1]; Postemergence, 0 to 100 scale
  Plant response rating, Oat, Wild: 20
[2]; [34]
  Plant response rating, Kochia: 60
[2]; [35]
  Plant response rating, Kochia: 90
[3]; [34]
  Plant response rating, Horseweed: 0
[3]; [35]
  Plant response rating, Horseweed: 20
[4]; [32]
  Plant response rating, Goosegrass: 100
[4]; [33]
  Plant response rating, Goosegrass: 100
[5]; [34]
  Plant response rating, Foxtail, Giant: 10
[5]; [35]
  Plant response rating, Foxtail, Giant: 50
[6]; Postemergence, 0 to 100 scale
  Plant response rating, Soybean: 100
[7]; [34]
  Plant response rating, Corn: 10
[7]; [35]
  Plant response rating, Corn: 70
[8]
  Plant response rating, Barnyardgrass: 0
[9]; [32]
  Plant response rating, Wheat: 40
[9]; [33]
  Plant response rating, Wheat: 70
[10]; [32]
  Plant response rating, Kochia: 80
[10]; [33]
  Plant response rating, Kochia: 100
[11]; [32]
  Plant response rating, Soybean: 30
[11]; [33]
  Plant response rating, Soybean: 90
[12]; [32]
  Plant response rating, Blackgrass: 80
[12]; [33]
  Plant response rating, Blackgrass: 90
[13]; [32]
  Plant response rating, Oat, Wild: 70
[13]; [33]
  Plant response rating, Oat, Wild: 80
[14]; [34]
  Plant response rating, Galium: 100
[14]; [35]
  Plant response rating, Galium: 100
[15]
  Plant response rating, Rice: 0
[16]; Postemergence, 0 to 100 scale
  Plant response rating, Wheat: 20
[17]; [32]
  Plant response rating, Ragweed: 0
[17]; [33]
  Plant response rating, Ragweed: 40
[18]; Postemergence, 0 to 100 scale
  Plant response rating, Pigweed, Palmer: 70
[19]; [34]
  Plant response rating, Goosegrass: 10
[19]; [35]
  Plant response rating, Goosegrass: 40
[20]; [32]
  Plant response rating, Corn: 40
[20]; [33]
  Plant response rating, Corn: 50
[21]
  Plant response rating, Sedge, Umbrella: 95
[22]; Postemergence, 0 to 100 scale
  Plant response rating, Ragweed: 80
[23]; Postemergence, 0 to 100 scale
  Plant response rating, Ryegrass, Italian: 100
[24]; [32]
  Plant response rating, Ryegrass, Italian: 100
[24]; [33]
  Plant response rating, Ryegrass, Italian: 100
[25]; [32]
  Plant response rating, Foxtail, Giant: 100
[25]; [33]
  Plant response rating, Foxtail, Giant: 100
[26]; [32]
  Plant response rating, Pigweed, Palmer: 90
[26]; [33]
  Plant response rating, Pigweed, Palmer: 100
[27]
  Plant response rating, Ducksalad: 45
[28]; [34]
  Plant response rating, Blackgrass: 30
[28]; [35]
  Plant response rating, Blackgrass: 80
